Tests used:
BEL-7402 cells = test: MTT antiproliferative assay, BEL-7402; type: cell-based, human; conditions: Homo sapiens, Bel-7402, 48 h, MTT, mean ± SD, n=3; for inhibition at 100 µM: read-out: % Growth Inhibition at 100 μM BEL-7402
Method: (§1) The antiproliferative activity of the target compounds against a normal L02 cell line and the three different human cancer cell lines viz. colorectal (HCT-116), liver (BEL-7402) and liver (HepG2) were evaluated using a standard MTT-based colorimetric assay. All cell lines were obtained from the Key Laboratory of Natural Resources and Functional Molecules of the Changbai Mountain (Yanbian University, Jilin, China) and maintained in Dulbecco’s modified Eagle’s medium (DMEM) and RPMI Media 1640 (RPMI1640), supplemented with 10% fetal bovine serum (FBS) at 37 °C in a humidified atmosphere containing 5% CO2.
(§2) Cells were plated in 96-well plates at appropriate densities to ensure exponential growth throughout the experimental period (9 × 10^3 cells per well) and then allowed to adhere for 24 h. Cells were then treated for 48 h with four serial concentrations (1, 10, 50 and 100 µM) of each compound. 5-fluorouracil (5-FU) was used as a positive control. After 48 h of incubation, 10 µL of MTT solution was added to each well to a final concentration of 2 mg/mL. Plates were then incubated for a further 4 h. After incubation, the MTT solution was removed and 150 µL of DMSO was added to each well for coloration. The plates were shaken vigorously for 10 min at room temperature to ensure complete solubilization. The optical density (OD) was read on a microplate reader (ELx800, BioTek, Highland Park, Winooski, VT, USA) at a wavelength of 492 nm and the data were subsequently analyzed. The percentage of cell growth inhibition was calculated from the following equation: Inhibitory rate (%) = [(1 − (ODtreated-ODblank)/(ODcontrol-ODblank)] × 100.(1)

HCT-116 cells = test: MTT antiproliferative assay, HCT-116; type: cell-based, human; conditions: Homo sapiens, HCT-116, 48 h, MTT, mean ± SD, n=3; for inhibition at 100 µM: read-out: % Growth Inhibition at 100 μM HCT-116
Method: as §1, §2

L02 cells = test: MTT assay on normal liver cells L02; type: cell-based; conditions: Homo sapiens, normal liver cells, 48 h, MTT, Table 2, read-out: IC50 Values (μM) L02
Method: as §1
as §2, with “5-fluorouracil (5-FU) was used as a positive control.” left out

HepG2 cells = test: MTT antiproliferative assay, HepG2; type: cell-based, human; conditions: Homo sapiens, HepG2, 48 h, MTT, mean ± SD, n=3; for inhibition at 100 µM: read-out: % Growth Inhibition at 100 μM HepG2
Method: as §1, §2

Row | Structure (SMILES) | melting point [°C] | inhibition at 100 µM (BEL-7402 cells) [%] | IC50 (BEL-7402 cells) [µM] | inhibition at 100 µM (HCT-116 cells) [%] | IC50 (HCT-116 cells) [µM] | IC50 (L02 cells) [µM] | inhibition at 100 µM (HepG2 cells) [%] | IC50 (HepG2 cells) [µM]
1 | CN(C)CCNC(=O)[C@]1(C)CCC[C@@]2(C)[C@@H]3CC[C@@]4(C)C[C@]3(CC[C@@H]21)CC4=O [Compound 1b, (4R,4aS,6aR,9S,11aR,11bS)-N-(2-(dimethylamino)ethyl)-4,9,11b-trimethyl-8-oxotetradecahydro-6a,9-methanocyclohepta[a]naphthalene-4-carboxamide] | 102 to 103 | 88.5 ± 2.02 | > 100 | 76.6 ± 1.78 | 24 ± 1.2 | > 100 | 57 ± 2.35 | > 100
2 | CCN1CCN(C(=O)COC(=O)[C@]2(C)CCC[C@@]3(C)[C@@H]4CC[C@@]5(C)C[C@]4(CC[C@@H]32)CC5=O)CC1 [Compound 2b, 2-(4-ethylpiperazin-1-yl)-2-oxoethyl(4R,4aS,6aR,9S,11aR,11bS)-4,9,11b-trimethyl-8-oxotetradecahydro-6a,9-methanocyclohepta[a]naphthalene-4-carboxylate] | 115 to 117 | 64.4 ± 1.66 | > 100 | 60.4 ± 1.69 | 30.7 ± 1.98 | > 100 | < 10 | > 100
3 | C[C@@]12CC[C@@H]3[C@@](CC[C@H]4[C@@]3(C)CCC[C@@]4(C)C(=O)OCC(=O)N3CCN(Cc4ccccc4)CC3)(CC1=O)C2 [Compound 2d, 2-(4-benzylpiperazin-1-yl)-2-oxoethyl(4R,4aS,6aR,9S,11aR,11bS)-4,9,11b-trimethyl-8-oxotetradecahydro-6a,9-methanocyclohepta[a]naphthalene-4-carboxylate] | 149 to 150 | 70.9 ± 1.05 | 53 ± 1.97 | 75.4 ± 1.06 | 18.2 ± 1.26 | > 100 | 70.6 ± 0.89 | 11.1 ± 0.55
4 | C[C@@]12CC[C@@H]3[C@@](CC[C@H]4[C@@]3(C)CCC[C@@]4(C)C(=O)OCC(=O)N3CCCCCC3)(CC1=O)C2 [Compound 2e, 2-(azepan-1-yl)-2-oxoethyl(4R,4aS,6aR,9S,11aR,11bS)-4,9,11b-trimethyl-8-oxotetradecahydro-6a,9-methanocyclohepta[a]naphthalene-4-carboxylate] | 110 to 112 | 64.9 ± 1.01 | 13.2 ± 0.32 | 85.6 ± 0.96 | > 100 | > 100 | 50.4 ± 0.57 | 20.5 ± 0.46
5 | COC(=O)[C@@H](NC(=O)[C@]1(C)CCC[C@@]2(C)[C@@H]3CC[C@@]4(C)C[C@]3(CC[C@@H]21)CC4=O)c1ccccc1 [Compound 3a, Methyl(S)-2-phenyl-2-((4R,4aS,6aR,9S,11aR,11bS)-4,9,11b-trimethyl-8-oxotetradecahydro-6a,9-methanocyclohepta[a]naphthalene-4-carboxamido)acetate] | 143 to 145 | 80 ± 0.95 | > 100 | 86.26 ± 0.59 | 40.4 ± 0.97 | > 100 | 75.25 ± 0.56 | > 100
6 | COC(=O)C(Cc1ccccc1)NC(=O)C1(C)CCCC2(C)C3CCC4(C)CC3(CCC12)CC4=O [Compound 3b, Methyl((4R,4aS,6aR,9S,11aR,11bS)-4,9,11b-trimethyl-8-oxotetradecahydro-6a,9-methanocyclohepta[a]naphthalene-4-carbonyl)-D-phenylalaninate] | 147 to 148 | 61.8 ± 0.96 | 36.5 ± 0.67 | 70.8 ± 0.98 | 22.8 ± 0.81 | > 100 | 81.2 ± 2.66 | 24.4 ± 1.75
7 | C[C@@]12CC[C@@H]3[C@@](CC[C@H]4[C@@]3(C)CCC[C@@]4(C)C(=O)OCC(=O)Nc3ccccc3)(CC1=O)C2 [Compound 4a, 2-oxo-2-(phenylamino)ethyl(4R,4aS,6aR,9S,11aR,11bS)-4,9,11b-trimethyl-8-oxotetradecahydro-6a,9-methanocyclohepta[a]naphthalene-4-carboxylate] | 154 to 156 | 50.8 ± 2.31 | > 100 | 60.4 ± 3.11 | 56.6 ± 1.56 | > 100 | 31.2 ± 1.19 | > 100
8 | C[C@@]12CC[C@@H]3[C@@](CC[C@H]4[C@@]3(C)CCC[C@@]4(C)C(=O)OCC(=O)Nc3cccc(F)c3)(CC1=O)C2 [Compound 4f, 2-((3-fluorophenyl)amino)-2-oxoethyl(4R,4aS,6aR,9S,11aR,11bS)-4,9,11b-trimethyl-8-oxotetradecahydro-6a,9-methanocyclohepta[a]naphthalene-4-carboxylate] | 144 to 145 | 54.6 ± 3.11 | > 100 | 68.7 ± 2.67 | 17.2 ± 0.43 | > 100 | 49.12 ± 0.44 | > 100
9 | C[C@@]12CC[C@@H]3[C@@](CC[C@H]4[C@@]3(C)CCC[C@@]4(C)C(=O)OCC(=O)Nc3ccc([N+](=O)[O-])cc3)(CC1=O)C2 [Compound 4h, 2-((4-nitrophenyl)amino)-2-oxoethyl(4R,4aS,6aR,9S,11aR,11bS)-4,9,11b-trimethyl-8-oxotetradecahydro-6a,9-methanocyclohepta[a]naphthalene-4-carboxylate] | 189 to 190 | 71.4 ± 2.36 | 12.14 ± 0.12 | 55.4 ± 2.55 | > 100 | > 100 | 76.5 ± 1 | 14.1 ± 0.27
10 | C[C@@]12CC[C@@H]3[C@@](CC[C@H]4[C@@]3(C)CCC[C@@]4(C)C(=O)OCC(=O)NCc3cn(-c4ccccc4)nn3)(CC1=O)C2 [Compound 5a, 2-oxo-2-(((1-phenyl-1H-1,2,3-triazol-4-yl)methyl)amino)ethyl(4R,4aS,6aR,9S,11aR,11bS)-4,9,11b-trimethyl-8-oxotetradecahydro-6a,9-methanocyclohepta[a]naphthalene-4-carboxylate] | 83 to 84 | 90 ± 1.92 | 27.1 ± 0.87 | 81.9 ± 2.55 | 14.6 ± 0.51 | > 100 | 87 ± 1.06 | 9.87 ± 0.13
11 | C[C@@]12CC[C@@H]3[C@@](CC[C@H]4[C@@]3(C)CCC[C@@]4(C)C(=O)OCC(=O)NCc3cn(-c4ccc(Cl)cc4)nn3)(CC1=O)C2 [Compound 5b, 2-(((1-(4-chlorophenyl)-1H-1,2,3-triazol-4-yl)methyl)amino)-2-oxoethyl(4R,4aS,6aR,9S,11aR,11bS)-4,9,11b-trimethyl-8-oxotetradecahydro-6a,9-methanocyclohepta[a]naphthalene-4-carboxylate] | 80 to 82 | 90.5 ± 1.04 | 22.5 ± 0.58 | 85.6 ± 1.34 | 7.44 ± 0.37 | > 100 | 82.1 ± 1.82 | 11.7 ± 0.23
12 | COc1ccc(-n2cc(CNC(=O)COC(=O)[C@]3(C)CCC[C@@]4(C)[C@@H]5CC[C@@]6(C)C[C@]5(CC[C@@H]43)CC6=O)nn2)cc1 [Compound 5c, 2-(((1-(4-methoxyphenyl)-1H-1,2,3-triazol-4-yl)methyl)amino)-2-oxoethyl(4R,4aS,6aR,9S,11aR,11bS)-4,9,11b-trimethyl-8-oxotetradecahydro-6a,9-methanocyclohepta[a]naphthalene-4-carboxylate] | 71 to 72 | 75.6 ± 1.76 | > 100 | 84.6 ± 1.55 | 14.4 ± 1.31 | > 100 | 82.8 ± 2.02 | 12.3 ± 0.77
13 | C[C@@]12CC[C@@H]3[C@@](CC[C@H]4[C@@]3(C)CCC[C@@]4(C)C(=O)O)(CC1=O)C2 [Isosteviol, isosteviol, reference compound] |  | 28 ± 1.79 | > 100 | 34.1 ± 1.89 | > 100 | > 100 | 11.8 ± 0.88 | > 100

— article PMC6337650 (Molecules, 2018)
